Source: patent publication US12011433B2 (UNIVERSITÁ DEGLI STUDI DI BARI “ALDO MORO”, priority 2016, dated 2024)
Marks after values point to notes of the source that are not given here.

Tests used:
[1] = system: GFAP; assay: astroglial activation in LPS-treated mice, GFAP immunoreactivity and immunoblotting; assay type: in vivo
Experimental: (§1) The protein concentration in the supernatant was spectrophotometrically determined by Bradford's protein assay (Bradford, 1976). […] Proteins (25 μg/lane) and prestained standards (BioRad Laboratories, Hercules, CA, USA) were loaded on 7% or 12% SDS precast polyacrylamide gels (BioRad Laboratories). After electrophoresis, the resolved proteins were transferred from the gel to nitrocellulose membranes. A blotting buffer [20 mMTris/150 mM glycine, pH=8.0, 20% (v/v) methanol] was used for gel and membrane saturation and blotting. […] Bands were visualized by chemiluminescence detection (Invitrogen, Milan, Italy). The β-actin level was used as a protein loading control. For tissue analysis, obtained bands were normalized to the level of β-actin performed for each cerebral area tested. For cell cultures the bands were normalized to the β-actin level in each experimental condition. […] VM in all the Figures) once a day for 10 days. […] On the seventh day, mice were anesthetized with tribromoethanol (250 mg/Kg, i.p.) and positioned in a stereotactic apparatus (Kopf Instruments, Tujunga, CA, USA). […] Immunohistochemistry was performed following a standard avidin-biotin complex procedure. […]

[2] = system: Iba-1; assay: microglial activation in LPS-treated mice, Iba-1 immunoreactivity and immunoblotting; assay type: in vivo
Experimental: as §1

[3] = molecular target: T1, COX-2 (Mus musculus (Mouse), UniProt Q05769); assay: COX-2 expression in LPS-treated BV2 microglial cells, western blotting; assay type: cell-based; conditions: LPS-stimulated BV2 cells
Experimental: Cells were then incubated for different times at 37° C. with LPS, as pro-inflammatory stimulus. Experiments included cells grown in medium alone (control).
(§2) The tissue and cell culture lysates were vortexed for 15-20 s and, then, centrifuged at 12,800×g for 20 min. The protein concentration in the supernatant was spectrophotometrically determined by Bradford's protein assay (Bradford, 1976). Protein samples were diluted with sample buffer (0.5 M Tris-HCl pH=6.8, 10% glycerol, 10% (w/v) SDS, 5% 2-mercaptoethanol, 0.05% (w/v) bromophenol blue) and then boiled for 3 min. Proteins (25 μg/lane) and prestained standards (BioRad Laboratories, Hercules, CA, USA) were loaded on 7% or 12% SDS precast polyacrylamide gels (BioRad Laboratories).
After electrophoresis, the resolved proteins were transferred from the gel to nitrocellulose membranes. A blotting buffer [20 mMTris/150 mM glycine, pH=8.0, 20% (v/v) methanol] was used for gel and membrane saturation and blotting. […]

[4] = molecular target: T1, COX-2; assay: COX-2 expression in brain regions of LPS-treated mice, immunoblotting; assay type: in vivo; conditions: for COX-2 expression reduction (%): mofezolac 6 mg/kg i.p.
Experimental: Substantia nigra pars compacta (SNpc), Hippocampus, Frontal lobe and Caudate from mice brains were minced in ice-cold PBS, washed and then homogenized in a buffer containing lysis buffer (50 mM Tris pH 8, 0.02 g/mL NaCl, 0.2% SDS, 1% Triton-X, 4 U/ml aprotinin, 2 mM leupeptin, 100 mM phenylmethanesulfonyl fluoride).
as §2
After electrophoresis, the resolved proteins were transferred from the gel to nitrocellulose membranes. A blotting buffer [20 mMTris/150 mM glycine, pH=8.0, 20% (v/v) methanol] was used for gel and membrane saturation and blotting. Then, membranes were incubated in the dark with 1 μg/mL mouse monoclonal antibody (MoAb) anti-COX-1 and rabbit polyclonal Ab anti-COX-2 (1:1000) (both from AbCam, Cambridge, UK), rabbit polyclonal Ab anti p-IkB-α (1:200), mouse polyclonal Ab anti β-actin (1:500) (all from Santa Cruz Biotechnology), mouse MoAb anti-glial fibrillary acidic protein (GFAP) (1:200) and mouse mAb anti-ionized calcium-binding adapter molecule-1 (Iba-1) (1:200) (both from Merck Millipore) overnight at 4° C. The membranes were washed with 0.1% Tween 20-PBS (for 20 min, 3 times) and then incubated with the secondary antibody diluted 1:2000 for 60 min. Bands were visualized by chemiluminescence detection (Invitrogen, Milan, Italy). The β-actin level was used as a protein loading control. For tissue analysis, obtained bands were normalized to the level of β-actin performed for each cerebral area tested. For cell cultures the bands were normalized to the β-actin level in each experimental condition.
(§3) On the seventh day, mice were anesthetized with tribromoethanol (250 mg/Kg, i.p.) and positioned in a stereotactic apparatus (Kopf Instruments, Tujunga, CA, USA). […] Sterotaxic injections coordinates were: 2.3 mm dorsal/ventral, 1.0 mm lateral, and 0.5 mm anterior/posterior from the bregma.

[5] = system: PGE2; assay: PGE2 release in LPS-stimulated BV2 microglial cells, competitive binding immunoassay; assay type: cell-based; conditions: for PGE2 release (ng/ml) at 48 h: LPS-stimulated BV2 cells; for PGE2 production reduction: LPS-treated BV2 cells
Experimental: (§4) Microglial cells were cultured in 6-well plates at a density of 3×10^6 cells/well. […] The cultures were maintained at 37° C. for 24 and 48 h in a humidified air containing a 5% CO2. PGE2 levels were determined in the supernatant using a competitive binding immunoassay (Cayman Chemical, Ann Arbor, MI, USA) following the manufacturer's instructions. Unstimulated cells were included as a control. PGE2 amount determination in the brain was performed in the tissue extracts, according to the manufacturer's instructions. The optical density was measured at λ=405-420 nm with precision microplate reader and the amount of PGE2 (ng/mL) was calculated using a PGE2 standard curve.

[6] = system: PGE2; assay: PGE2 release in brain specimens from LPS-treated mice; assay type: in vivo; conditions: for PGE2 release reduction (%): LPS-treated mice, mofezolac 6 mg/kg i.p.; for PGE2 release (ng/mg tissue): LPS or M+LPS treated mice
Experimental: as §3, §4

[7] = immunoblotting, mofezolac + LPS vs LPS alone

COX-2 protein levels [3]: unaffected
COX-2 expression reduction (%) ([4]; Caudate): 0%
COX-2 expression reduction (%) ([4]; Frontal lobe): 0%
COX-2 expression reduction (%) ([4]; Hippocampus): 0%
COX-2 expression reduction (%) ([4]; Substantia nigra): 0%
effect on COX-2 modulation ([4]; all tested brain regions): no effect
SMILES: COc1ccc(-c2noc(CC(=O)O)c2-c2ccc(OC)cc2)cc1 [mofezolac, 2-(3,4-bis(4-methoxyphenyl)isoxazol-5-yl)acetic acid]
GFAP levels [1, 7]: significantly reduced
GFAP immunoreactive cells ([1]; immunohistochemistry, LPS-treated mice, mofezolac 6 mg/kg i.p., all the tested brain areas): reduced the presence of GFAP immunoreactive cells
Iba-1 levels [2, 7]: significantly reduced
Iba-1 immunoreactivity ([2]; immunohistochemistry, LPS-injected mice, mofezolac 6 mg/kg i.p., all the tested brain areas): reduction of Iba-1 immunoreactivity
PGE2 release (ng/ml) at 48 h ([5]; 0.1 μM inhibitor + LPS): 0.06 ng/mL
PGE2 release (ng/ml) at 48 h ([5]; 0.5 μM inhibitor + LPS): 0.03 ng/mL
PGE2 production reduction ([5]; at 0.5 μM as printed in the text): 94%
PGE2 production reduction ([5]; at 1 μM as printed in the text): 97%
PGE2 release reduction (%) ([6]; Caudate): 67%
PGE2 release (ng/mg tissue) ([6]; Caudate-Putamen): 1.84 + 0.035 ^d ng/mg tissue
PGE2 release (ng/mg tissue) ([6]; Frontal lobe): 2.40 ± 0.046 ^d ng/mg tissue
PGE2 release reduction (%) ([6]; Frontal lobe): 49%
PGE2 release (ng/mg tissue) ([6]; Hippocampus): 2.33 ± 0.032 ^d ng/mg tissue
PGE2 release reduction (%) ([6]; Hippocampus): 48%
PGE2 release (ng/mg tissue) ([6]; Substantia nigra): 3.31 ± 0.079 ^d ng/mg tissue
PGE2 release reduction (%) ([6]; Substantia nigra): 39%
